“And” between values parts separate entries of the source, which are not always exact repeats. Identical values can stand only once. Toxic doses and inconclusive results are not listed. Cut-off read from the data, not from the text of the source: active = T/C of 150% or more; inactive = T/C below 125%.
Test system: L1210 leukemia ip in BDF1 mice, survival T/C
Assay: NCI In Vivo Anticancer Drug Screen. Data for tumor model L1210 Leukemia (intraperitoneal) in B6D2F1 (BDF1) mice
Conditions: endpoint: mean survival time, higher = longer survival
Summary of the method: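 Survival endpoint. Drug-treated group vs vehicle group, expressed as T divided by C. Tumor passaged by transplantation.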

Measured: T/C

CN(C)C(=O)Nc1cccc(OC(=O)NC2CC2)c1
inactive: dose: 100.0 mg/kg/injection, schedule: Q04DX003 (ip), vehicle: saline with Tween-80 96 % of control | dose: 200.0 mg/kg/injection, schedule: Q04DX003 (ip), vehicle: saline with Tween-80 95 % of control | dose: 400.0 mg/kg/injection, schedule: Q04DX003 (ip), vehicle: saline with Tween-80 90 % of control

O[C@H]1[C@H]2c3cc4c(cc3CN3CCC(=C[C@@H]1O)[C@H]23)OCO4
inactive: dose: 50.0 mg/kg/injection, schedule: Q01DX Z (ip), vehicle: steriod suspending solution 120 % of control | dose: 75.0 mg/kg/injection, schedule: Q01DX Z (ip), vehicle: steriod suspending solution 96 % of control and 105 % of control | dose: 100.0 mg/kg/injection, schedule: Q01DX Z (ip), vehicle: steriod suspending solution 114 % of control

CCOC(=O)C1CCc2c(ccc3ccccc23)N1CCC#N (configuration not stated)
inactive: dose: 100.0 mg/kg/injection, schedule: Q01DX009 (ip), vehicle: carboxymethylcellulose (CMC) 95 % of control and 101 % of control | dose: 100.0 mg/kg/injection, schedule: Q04DX002 (ip), vehicle: carboxymethylcellulose (CMC) 97 % of control | dose: 100.0 mg/kg/injection, schedule: Q04DX003 (ip), vehicle: carboxymethylcellulose (CMC) 105 % of control | dose: 200.0 mg/kg/injection, schedule: Q01DX009 (ip), vehicle: carboxymethylcellulose (CMC) 98 % of control and 88 % of control | dose: 200.0 mg/kg/injection, schedule: Q04DX002 (ip), vehicle: carboxymethylcellulose (CMC) 91 % of control | dose: 200.0 mg/kg/injection, schedule: Q04DX003 (ip), vehicle: carboxymethylcellulose (CMC) 101 % of control | dose: 400.0 mg/kg/injection, schedule: Q01DX009 (ip), vehicle: carboxymethylcellulose (CMC) 97 % of control and 107 % of control | dose: 400.0 mg/kg/injection, schedule: Q04DX002 (ip), vehicle: carboxymethylcellulose (CMC) 97 % of control | dose: 400.0 mg/kg/injection, schedule: Q04DX003 (ip), vehicle: carboxymethylcellulose (CMC) 110 % of control

COc1ccc(C(C#N)N2CCOCC2)cc1 (configuration not stated)
inactive: dose: 50.0 mg/kg/injection, schedule: Q01DX009 (ip), vehicle: Klucel (hydroxypropylcellulose) (HPC) 92 % of control | dose: 100.0 mg/kg/injection, schedule: Q01DX009 (ip), vehicle: Klucel (hydroxypropylcellulose) (HPC) 93 % of control | dose: 100.0 mg/kg/injection, schedule: Q04DX003 (ip), vehicle: Klucel (hydroxypropylcellulose) (HPC) 96 % of control | dose: 200.0 mg/kg/injection, schedule: Q01DX009 (ip), vehicle: Klucel (hydroxypropylcellulose) (HPC) 96 % of control | dose: 200.0 mg/kg/injection, schedule: Q04DX003 (ip), vehicle: Klucel (hydroxypropylcellulose) (HPC) 91 % of control

C=CC1(O)CC2CCC1C2 (configuration not stated)
inactive: dose: 100.0 mg/kg/injection, schedule: Q01DX009 (ip), vehicle: saline with Tween-80 101 % of control | dose: 200.0 mg/kg/injection, schedule: Q01DX009 (ip), vehicle: saline with Tween-80 96 % of control

Source: PubChem BioAssay AID248 (DTP/NCI, 2004)
